Assay results taken from ChEMBL document CHEMBL1201862, “PubChem BioAssay data set” (2004).
Active and inactive are the calls of the source.

How the values were obtained:
[1] = biological target: T1, Corticotropin-releasing factor receptor 2/Corticotropin-releasing factor-binding protein (Homo sapiens, UniProt P24387+Q13324); test: activators of CRF receptor 2 with binding protein – uHTS hits, confirmation (AID 602473); assay type: functional; settings: read-out: EC50_Mean
T1 sequence (Q13324 whole entry): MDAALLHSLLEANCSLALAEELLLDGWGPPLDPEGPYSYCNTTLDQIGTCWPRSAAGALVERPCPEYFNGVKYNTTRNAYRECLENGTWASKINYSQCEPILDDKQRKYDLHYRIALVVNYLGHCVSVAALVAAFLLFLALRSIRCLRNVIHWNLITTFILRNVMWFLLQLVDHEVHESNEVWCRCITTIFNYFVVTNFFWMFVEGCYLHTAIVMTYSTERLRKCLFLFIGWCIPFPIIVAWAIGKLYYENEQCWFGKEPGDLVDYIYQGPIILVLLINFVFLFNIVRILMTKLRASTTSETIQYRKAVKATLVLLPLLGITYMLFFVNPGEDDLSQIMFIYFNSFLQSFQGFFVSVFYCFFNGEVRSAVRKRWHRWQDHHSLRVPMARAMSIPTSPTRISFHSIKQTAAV
T1 sequence (P24387 whole entry): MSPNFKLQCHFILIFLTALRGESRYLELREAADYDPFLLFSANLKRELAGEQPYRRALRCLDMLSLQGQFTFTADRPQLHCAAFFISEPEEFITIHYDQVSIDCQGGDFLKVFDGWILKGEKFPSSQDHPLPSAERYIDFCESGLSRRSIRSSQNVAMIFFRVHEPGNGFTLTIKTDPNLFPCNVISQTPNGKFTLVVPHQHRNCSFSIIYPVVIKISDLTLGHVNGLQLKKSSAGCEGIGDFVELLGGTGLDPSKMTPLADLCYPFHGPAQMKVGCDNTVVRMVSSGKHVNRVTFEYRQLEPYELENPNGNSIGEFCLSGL

[2] = biological target: T2, Fatty acid synthase (Homo sapiens, UniProt P49327); test: FAS thioesterase domain inhibitors, dose response, biochemical, kinetic fluorescence intensity (AID 624326); assay type: functional;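 also: rate of fluorescence rise from hydrolysis of a fluorogenic O-methyl fluorescein ester substrate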
T2 sequence (P49327 whole entry, the tested form may be a part): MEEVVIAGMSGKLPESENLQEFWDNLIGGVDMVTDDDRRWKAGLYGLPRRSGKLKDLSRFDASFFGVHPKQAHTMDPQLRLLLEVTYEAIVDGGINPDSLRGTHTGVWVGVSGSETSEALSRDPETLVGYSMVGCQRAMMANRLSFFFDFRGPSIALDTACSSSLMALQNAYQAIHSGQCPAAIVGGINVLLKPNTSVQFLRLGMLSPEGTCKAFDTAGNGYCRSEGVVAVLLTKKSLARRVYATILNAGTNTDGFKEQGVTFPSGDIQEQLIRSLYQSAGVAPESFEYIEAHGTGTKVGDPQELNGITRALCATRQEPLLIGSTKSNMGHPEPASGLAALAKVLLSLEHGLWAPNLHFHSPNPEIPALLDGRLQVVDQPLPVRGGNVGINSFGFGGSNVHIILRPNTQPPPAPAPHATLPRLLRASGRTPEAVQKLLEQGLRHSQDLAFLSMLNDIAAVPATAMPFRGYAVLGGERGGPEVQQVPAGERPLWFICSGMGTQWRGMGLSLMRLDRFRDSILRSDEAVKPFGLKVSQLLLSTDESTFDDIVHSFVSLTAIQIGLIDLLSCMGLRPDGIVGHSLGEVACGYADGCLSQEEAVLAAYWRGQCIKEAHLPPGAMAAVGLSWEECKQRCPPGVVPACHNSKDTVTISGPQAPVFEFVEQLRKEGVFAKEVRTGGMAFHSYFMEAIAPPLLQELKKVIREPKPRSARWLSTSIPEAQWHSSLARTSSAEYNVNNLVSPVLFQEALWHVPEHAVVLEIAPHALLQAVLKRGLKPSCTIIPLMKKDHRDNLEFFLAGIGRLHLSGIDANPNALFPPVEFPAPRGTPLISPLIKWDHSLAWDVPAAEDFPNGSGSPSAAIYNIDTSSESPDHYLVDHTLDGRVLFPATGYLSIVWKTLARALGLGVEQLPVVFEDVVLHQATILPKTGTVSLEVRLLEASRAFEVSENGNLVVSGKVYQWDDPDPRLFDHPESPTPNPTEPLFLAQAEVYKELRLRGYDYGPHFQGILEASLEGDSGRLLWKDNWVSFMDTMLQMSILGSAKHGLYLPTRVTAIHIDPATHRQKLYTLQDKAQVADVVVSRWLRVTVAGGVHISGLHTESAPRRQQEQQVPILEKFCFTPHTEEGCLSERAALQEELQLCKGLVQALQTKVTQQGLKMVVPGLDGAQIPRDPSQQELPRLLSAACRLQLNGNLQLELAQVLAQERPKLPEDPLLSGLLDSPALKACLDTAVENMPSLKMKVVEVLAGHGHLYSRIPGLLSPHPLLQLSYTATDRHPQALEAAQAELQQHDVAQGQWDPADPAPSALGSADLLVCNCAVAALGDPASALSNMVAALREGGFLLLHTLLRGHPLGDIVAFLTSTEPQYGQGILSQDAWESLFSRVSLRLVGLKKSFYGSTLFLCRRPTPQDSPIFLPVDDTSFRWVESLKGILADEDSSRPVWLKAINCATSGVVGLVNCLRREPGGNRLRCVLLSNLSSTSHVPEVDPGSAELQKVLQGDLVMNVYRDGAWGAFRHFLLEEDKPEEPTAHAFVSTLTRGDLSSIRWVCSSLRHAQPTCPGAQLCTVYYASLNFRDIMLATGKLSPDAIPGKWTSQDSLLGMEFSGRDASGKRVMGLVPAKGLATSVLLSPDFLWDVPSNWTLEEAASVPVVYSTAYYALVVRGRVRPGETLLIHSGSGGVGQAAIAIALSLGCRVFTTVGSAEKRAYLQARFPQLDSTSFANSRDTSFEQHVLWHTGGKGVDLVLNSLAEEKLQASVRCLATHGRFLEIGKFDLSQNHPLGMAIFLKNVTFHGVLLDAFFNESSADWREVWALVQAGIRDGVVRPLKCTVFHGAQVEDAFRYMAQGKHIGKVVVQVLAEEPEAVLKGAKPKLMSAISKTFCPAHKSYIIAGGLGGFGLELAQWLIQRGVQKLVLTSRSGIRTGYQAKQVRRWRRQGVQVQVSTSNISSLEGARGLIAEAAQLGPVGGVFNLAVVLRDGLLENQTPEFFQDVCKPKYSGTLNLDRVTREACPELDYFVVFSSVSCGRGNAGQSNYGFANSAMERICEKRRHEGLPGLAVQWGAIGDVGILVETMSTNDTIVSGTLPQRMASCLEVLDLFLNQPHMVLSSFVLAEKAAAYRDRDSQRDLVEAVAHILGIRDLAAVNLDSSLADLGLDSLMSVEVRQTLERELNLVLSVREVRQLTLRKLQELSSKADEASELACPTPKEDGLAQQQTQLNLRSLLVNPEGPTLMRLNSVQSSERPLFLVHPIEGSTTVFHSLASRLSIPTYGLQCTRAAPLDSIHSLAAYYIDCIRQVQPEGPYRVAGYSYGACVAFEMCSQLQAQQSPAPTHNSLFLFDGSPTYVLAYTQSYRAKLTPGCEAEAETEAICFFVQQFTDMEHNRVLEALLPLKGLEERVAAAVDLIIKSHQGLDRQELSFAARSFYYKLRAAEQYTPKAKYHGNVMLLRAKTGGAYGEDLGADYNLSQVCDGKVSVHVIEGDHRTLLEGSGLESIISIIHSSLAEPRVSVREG

[3] = biological target: T1, Corticotropin-releasing factor receptor 2/Corticotropin-releasing factor-binding protein; test: Dose Response confirmation of uHTS hits for small molecule antagonists of the CRF-binding protein and CRF-R2 receptor complex.; assay type: functional; settings: read-out: IC50_Mean
[4] = biological target: T2, Fatty acid synthase; test: FAS thioesterase domain inhibitors, dose response, biochemical, endpoint fluorescence intensity, uHTS hits (AID 624327); assay type: functional;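 also: fluorescence from hydrolysis of an O-methyl fluorescein acyl ester substrate by the enzyme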
[5] = biological target: Paired box protein Pax-8 (Homo sapiens, UniProt Q06710); test: inhibitors of PAX8-driven TPO luciferase reporter, dose response, RMG-I cells, cherry-pick (AID 687027); assay type: functional, cell-based;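 also: luciferase reporter driven by Pax8 target thyroperoxidase promoter measured by SteadyGlo luminescence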
Sequence of Paired box protein Pax-8 (Q06710 whole entry): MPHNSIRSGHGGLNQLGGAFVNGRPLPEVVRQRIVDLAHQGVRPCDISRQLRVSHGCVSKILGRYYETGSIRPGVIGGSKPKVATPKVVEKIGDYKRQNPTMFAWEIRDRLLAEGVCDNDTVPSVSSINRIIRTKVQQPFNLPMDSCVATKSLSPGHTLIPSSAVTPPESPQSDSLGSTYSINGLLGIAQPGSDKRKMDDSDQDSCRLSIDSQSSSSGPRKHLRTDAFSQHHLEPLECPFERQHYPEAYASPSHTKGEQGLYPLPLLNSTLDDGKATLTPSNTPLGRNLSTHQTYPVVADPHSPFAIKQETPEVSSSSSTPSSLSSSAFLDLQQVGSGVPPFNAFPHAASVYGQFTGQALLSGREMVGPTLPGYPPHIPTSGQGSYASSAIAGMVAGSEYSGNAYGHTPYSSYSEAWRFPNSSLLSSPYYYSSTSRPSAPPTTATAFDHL

[6] = biological target: Nonstructural protein 1 (Influenza A virus, UniProt Q194T2); assay type: functional, Influenza A virus (A/California/07/2009(H1N1))
Sequence of Nonstructural protein 1 (Q194T2 whole entry): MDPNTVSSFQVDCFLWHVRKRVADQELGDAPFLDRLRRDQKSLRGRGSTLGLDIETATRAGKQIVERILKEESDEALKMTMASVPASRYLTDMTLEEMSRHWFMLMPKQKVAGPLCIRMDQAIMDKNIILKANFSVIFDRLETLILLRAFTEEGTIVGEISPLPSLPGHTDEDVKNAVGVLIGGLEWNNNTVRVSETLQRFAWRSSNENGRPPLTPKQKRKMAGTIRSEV

[7] = system: SN12K1; test: cells; assay type: functional; settings: Homo sapiens
[8] = cells; assay type: functional, cell-based
[9] = Vero E6 cell cytotoxicity, dose response, cytotoxicity control for non-replicating M. tuberculosis project, secondary assay (AID 492998); assay type: functional, VeroE6; settings: Vero C1008
[10] = cells; assay type: functional
[11] = THP-1 cell cytotoxicity, dose response, cytotoxicity control for non-replicating M. tuberculosis project (AID 489025); assay type: functional
[12] = biological target: T3, Microphthalmia-associated transcription factor (Homo sapiens, UniProt O75030); test: TRPM1 promoter luciferase signal decrease, dose response, MITF inhibitor project, cell-based, SK-MEL-5, cherry-picked, set 3 (AID 493073); assay type: functional
T3 sequence (O75030 whole entry): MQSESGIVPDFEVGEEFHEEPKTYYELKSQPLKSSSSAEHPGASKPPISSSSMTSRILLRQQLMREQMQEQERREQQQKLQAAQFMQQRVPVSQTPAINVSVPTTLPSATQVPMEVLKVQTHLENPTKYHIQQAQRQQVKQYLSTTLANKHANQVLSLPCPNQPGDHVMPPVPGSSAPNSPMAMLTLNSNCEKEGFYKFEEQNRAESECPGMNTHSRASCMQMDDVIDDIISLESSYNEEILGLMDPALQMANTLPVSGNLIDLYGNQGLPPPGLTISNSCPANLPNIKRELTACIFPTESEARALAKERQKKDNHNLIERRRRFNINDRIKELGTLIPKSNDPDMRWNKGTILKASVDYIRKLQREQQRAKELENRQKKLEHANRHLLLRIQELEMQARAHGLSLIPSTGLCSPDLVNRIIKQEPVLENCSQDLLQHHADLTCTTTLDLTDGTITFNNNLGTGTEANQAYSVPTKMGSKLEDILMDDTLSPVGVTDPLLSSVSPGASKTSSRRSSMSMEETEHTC

[13] = cells; assay type: functional, cell-based; remark: listed apart in the source
[14] = Luminescence Cell-Based Dose Response HTS to Identify Inhibitors of 5'UTR Stem-Loop Driven Prion Protein mRNA Translation in H4 Neuroglioblastoma Cells. [Related pubchem assays: 1827 (Project Summary), 1813 (Primary HTS)]; assay type: functional
[15] = C. albicans growth with fluconazole, confirmation, fluorescence, retest (AID 2467); assay type: functional, cell-based
[16] = inhibitors of firefly luciferase expression or activity, dose response, H4 neuroglioma cells, luminescence (AID 1990); assay type: functional, cell-based
[17] = cytotoxicity toward NIH3T3 fibroblasts, dose response, counter-screen, cell-based, ATP luminescence, mouse fibroblasts (AID 2010); assay type: functional;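 also: cells exposed to compound for about 90 hours before reading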
[18] = growth suppression of PTEN-null colon cells, dose response, cell-based, HCT116 PTEN knockout (AID 1047); assay type: functional;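 also: HCT116 colon tumor cells with PTEN knocked out; cells exposed to compound for 60 hours before readout; potency for loss of cell viability measured by luminescence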
[19] = biological target: T4, Replicative DNA helicase DnaB (Mycobacterium tuberculosis, UniProt P9WMR3); test: DnaB intein splicing inhibitors, dose response, biochemical, cell-free fluorescence (AID 449749); assay type: functional
T4 sequence (P9WMR3 whole entry): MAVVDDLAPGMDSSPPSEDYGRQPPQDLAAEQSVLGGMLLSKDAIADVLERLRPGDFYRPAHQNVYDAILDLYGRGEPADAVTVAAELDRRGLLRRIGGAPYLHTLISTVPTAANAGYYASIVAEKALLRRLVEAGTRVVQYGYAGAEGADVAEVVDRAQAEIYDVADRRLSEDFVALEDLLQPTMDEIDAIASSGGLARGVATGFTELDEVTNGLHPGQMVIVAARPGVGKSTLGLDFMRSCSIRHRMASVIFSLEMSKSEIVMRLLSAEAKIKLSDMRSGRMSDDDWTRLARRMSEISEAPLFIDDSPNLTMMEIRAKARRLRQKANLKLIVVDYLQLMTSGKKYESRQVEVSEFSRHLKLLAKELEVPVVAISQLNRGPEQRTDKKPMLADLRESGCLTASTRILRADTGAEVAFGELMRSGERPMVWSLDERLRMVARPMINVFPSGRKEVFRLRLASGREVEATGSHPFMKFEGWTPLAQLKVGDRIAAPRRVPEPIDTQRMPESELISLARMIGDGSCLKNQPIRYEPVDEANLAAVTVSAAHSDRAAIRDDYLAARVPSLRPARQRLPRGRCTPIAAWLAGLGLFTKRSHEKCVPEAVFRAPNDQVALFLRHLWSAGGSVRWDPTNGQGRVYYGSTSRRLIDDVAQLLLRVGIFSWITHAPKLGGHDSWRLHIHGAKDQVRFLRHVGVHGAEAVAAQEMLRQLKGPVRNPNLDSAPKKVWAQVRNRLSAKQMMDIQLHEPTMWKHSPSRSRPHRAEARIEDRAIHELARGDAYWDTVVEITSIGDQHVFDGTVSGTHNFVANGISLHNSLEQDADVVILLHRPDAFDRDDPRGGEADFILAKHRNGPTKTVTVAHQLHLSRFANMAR

[20] = biological target: T5, Protein RecA (Mycobacterium tuberculosis, UniProt P9WHJ3); test: Fluorescence Cell-Free Homogeneous Dose Retest to Identify Inhibitors of RecA-Intein Splicing Activity. [Related pubchem assays (depositor defined):AID2097, AID2223, AID489010, AID492950]; assay type: functional
T5 sequence (P9WHJ3 whole entry): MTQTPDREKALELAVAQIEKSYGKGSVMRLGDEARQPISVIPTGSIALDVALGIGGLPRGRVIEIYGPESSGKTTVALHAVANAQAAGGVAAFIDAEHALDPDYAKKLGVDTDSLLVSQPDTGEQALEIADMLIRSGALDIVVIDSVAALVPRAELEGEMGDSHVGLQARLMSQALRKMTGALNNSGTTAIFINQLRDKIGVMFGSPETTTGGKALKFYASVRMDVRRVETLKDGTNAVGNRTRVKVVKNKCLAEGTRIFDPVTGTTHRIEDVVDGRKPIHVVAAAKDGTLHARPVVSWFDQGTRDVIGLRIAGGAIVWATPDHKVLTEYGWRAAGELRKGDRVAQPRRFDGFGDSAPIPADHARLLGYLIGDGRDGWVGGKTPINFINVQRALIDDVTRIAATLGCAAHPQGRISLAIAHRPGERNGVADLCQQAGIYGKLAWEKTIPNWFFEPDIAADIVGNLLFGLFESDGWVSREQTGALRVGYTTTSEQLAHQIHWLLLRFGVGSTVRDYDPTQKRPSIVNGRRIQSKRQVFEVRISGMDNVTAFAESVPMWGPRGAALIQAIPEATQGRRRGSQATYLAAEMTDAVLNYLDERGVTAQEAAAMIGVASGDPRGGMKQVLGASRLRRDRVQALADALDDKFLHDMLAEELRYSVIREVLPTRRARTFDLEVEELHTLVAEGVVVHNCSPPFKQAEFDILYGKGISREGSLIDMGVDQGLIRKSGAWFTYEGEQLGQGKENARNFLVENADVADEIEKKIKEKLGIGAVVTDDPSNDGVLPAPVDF

[21] = growth suppression of beta-catenin-knockout colon cells, dose response, cell-based, HCT116, human colon tumor (AID 1045); assay type: functional;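 also: HCT116 colon tumor cells with beta catenin knocked out; cells exposed to compound for 60 hours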
[22] = NIH-3T3 fibroblast cytotoxicity, dose response, cytotoxicity control, cell-based, fluorescence, Alamar Blue, secondary assay (AID 2327); assay type: functional;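 also: NIH-3T3 mouse fibroblasts cultured with fluconazole at 8 µg/mL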
[23] = inhibitors of SNCA 5'UTR-driven reporter translation, confirmation, H4 neuroglioma cells, luminescence (AID 1988); assay type: functional, cell-based
[24] = inhibitors of intracellular T. cruzi replication, confirmation, NIH3T3 host cells, beta-gal luminescence (AID 2044); assay type: functional, cell-based;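 also: intracellular parasites grown in NIH/3T3 mouse fibroblasts as host cells; luminescent beta-galactosidase reporter signal from transgenic T. cruzi replicating inside host cells; inhibitors lower the luminescence signal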
[25] = system: INS1; test: beta cell apoptosis inhibitors, cytokine rescue, dose response, luminescence, retest (AID 449756); assay type: functional, cell-based; settings: Rattus norvegicus;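 also: cell death triggered by IL-1 beta plus TNF-alpha plus IFN-gamma mixture; protective hits raise ATP signal compared with cytokine alone wells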
[26] = biological target: Glucose-6-phosphate 1-dehydrogenase (Homo sapiens, UniProt P11413); test: human G6PD enzyme inhibitors, dose response, selectivity assay for P. falciparum G6PD inhibitor project, biochemical, fluorescence (AID 504792); assay type: functional
Sequence of Glucose-6-phosphate 1-dehydrogenase (P11413 whole entry): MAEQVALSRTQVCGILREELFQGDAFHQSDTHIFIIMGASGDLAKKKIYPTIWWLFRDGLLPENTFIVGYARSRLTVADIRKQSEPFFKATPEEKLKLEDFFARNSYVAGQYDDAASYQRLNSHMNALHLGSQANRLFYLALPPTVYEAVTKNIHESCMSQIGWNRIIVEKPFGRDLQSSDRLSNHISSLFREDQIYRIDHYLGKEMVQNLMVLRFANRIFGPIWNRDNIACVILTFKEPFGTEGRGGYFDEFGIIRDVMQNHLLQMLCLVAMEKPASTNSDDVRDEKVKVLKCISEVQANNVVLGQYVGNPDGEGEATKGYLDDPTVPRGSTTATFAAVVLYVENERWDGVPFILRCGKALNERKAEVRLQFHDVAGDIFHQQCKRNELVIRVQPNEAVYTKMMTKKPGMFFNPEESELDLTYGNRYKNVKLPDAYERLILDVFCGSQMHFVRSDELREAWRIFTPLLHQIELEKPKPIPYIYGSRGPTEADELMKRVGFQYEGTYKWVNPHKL

[27] = biological target: DNA dC->dU-editing enzyme APOBEC-3G (Homo sapiens, UniProt Q9HC16); test: Dose Response confirmation of small molecule APOBEC3G DNA Deaminase Inhibitors via a fluorescence-based single-stranded DNA deaminase assay. [Related pubchem assays (depositor defined):AID493012, AID493028]; assay type: functional
Sequence of DNA dC->dU-editing enzyme APOBEC-3G (Q9HC16 whole entry): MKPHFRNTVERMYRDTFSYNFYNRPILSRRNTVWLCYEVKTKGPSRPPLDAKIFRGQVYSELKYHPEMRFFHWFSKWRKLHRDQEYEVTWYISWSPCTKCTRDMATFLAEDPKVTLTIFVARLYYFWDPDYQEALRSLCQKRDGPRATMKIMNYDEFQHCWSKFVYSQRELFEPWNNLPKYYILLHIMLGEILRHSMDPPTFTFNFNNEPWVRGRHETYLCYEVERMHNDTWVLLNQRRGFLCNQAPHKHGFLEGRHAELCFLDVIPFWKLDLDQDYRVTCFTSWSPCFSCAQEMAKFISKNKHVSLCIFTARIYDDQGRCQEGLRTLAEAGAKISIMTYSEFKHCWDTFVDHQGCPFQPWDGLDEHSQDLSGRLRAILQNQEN

## C/C=C/C=C/C(=O)OC(C)C(=O)Nc1cc([N+](=O)[O-])ccc1OC (configuration not stated)
[1]
  EC50: > 53 µM (inactive)
[2]
  IC50: 4.79 µM (active)
[3]
  IC50: > 47.1 µM (inactive)
[4]
  IC50: 4.02 µM (active)

## CCOc1ccccc1N(CC)C(=O)c1ccc2c(=O)n3c(nc2c1)CCCCC3
[2]
  IC50: 3.45 µM (active)
[4]
  IC50: 3.88 µM (active)

## O=C(NN=Cc1c(O)ccc2ccccc12)c1ccncc1
[5]
  AC50: 1.17 µM (active)
[6]
  IC50: 11.9 µM (active)

## Nc1ncnc2c1ncn2C1C(O)C=C(CO)C1O (configuration not stated)
[7]
  GI50: > 625 µM (inactive)

## COc1cccc2sc(N3CCN(C(=O)c4ccc([N+](=O)[O-])o4)CC3)nc12
[8]
  EC50: > 350 µM (not active)
[9]
  CC50: 18.9 µM (active)
[10]
  IC50: < 0.1 µM (active)
[11]
  CC50: 36.5 µM (active)
[12]
  AC50: 7.03 µM (active)
[13]
  EC50: > 350 µM (not active)

## CC(=O)N(Cc1ccc(F)cc1)C1=C(NCc2ccccc2)C(=O)c2ccccc2C1=O
[14]
  EC50: > 120 µM (not active)
[15]
  EC50: 0.708 µM (active)
[16]
  EC50: 8.34 µM (active)
[17]
  EC50: 7.47 µM (active)
[18]
  EC50: 0.54 µM (active)
[19]
  AC50: 5.17 µM (active)
[6]
  IC50: 35.3 µM (active)
[20]
  EC50: 0.776 µM (active)
[21]
  EC50: 0.444 µM (active)
[22]
  EC50: 4.92 µM (inconclusive)
[23]
  EC50: 8.2 µM (active)
[24]
  EC50: 0.317 µM (active)

## COc1ccc(Cn2c(-c3ccc(C)cc3)c[n+]3ccccc23)cc1
[25]
  AC50: 4.52 µM (active)
[12]
  AC50: 2.89 µM (active)

## COC(=O)CCC(=O)Nc1sc(Cc2ccccc2)c(C)c1C(N)=O
[26]
  IC50: > 80 µM (inactive)
[27]
  IC50: 31.1 µM (active)
[10]
  IC50: 49 µM (active)
